Experiments:
[1] = tested on: NCI-H522; test: Growth inhibition of human NCI-H522 cells assessed as cell growth at 10 uM incubated for 48 hrs by sulforhodamine B assay relative to control; type: functional; details: NCI-H522, 48 h, read-out: Activity
[2] = tested on: SF-295; test: Growth inhibition of human SF295 cells incubated for 48 hrs by sulforhodamine B assay; type: functional, cell-based; details: SF-295, 48 h
[3] = tested on: SF-539; test: Growth inhibition of human SF539 cells incubated for 48 hrs by sulforhodamine B assay; type: functional, cell-based; details: SF-539, 48 h
[4] = tested on: DU-145; test: Growth inhibition of human DU145 cells incubated for 48 hrs by sulforhodamine B assay; type: functional, cell-based; details: DU-145, 48 h
[5] = tested on: MCF7; test: Growth inhibition of human MCF7 cells incubated for 48 hrs by sulforhodamine B assay; type: functional, cell-based; details: MCF7, 48 h
[6] = tested on: SR; test: Growth inhibition of human SR cells assessed as cell growth at 0.01 uM incubated for 48 hrs by sulforhodamine B assay relative to control; type: functional; details: read-out: Activity
[7] = tested on: HCC 2998; test: Growth inhibition of human HCC2998 cells assessed as cell growth at 0.01 uM incubated for 48 hrs by sulforhodamine B assay relative to control; type: functional; details: HCC 2998, 48 h, read-out: Activity
[8] = tested on: HT-29; test: Growth inhibition of human HT-29 cells assessed as cell growth at 0.01 uM incubated for 48 hrs by sulforhodamine B assay relative to control; type: functional; details: HT-29, 48 h, read-out: Activity
[9] = tested on: T47D; test: Growth inhibition of human T47D cells assessed as cell growth at 0.01 uM incubated for 48 hrs by sulforhodamine B assay relative to control; type: functional; details: read-out: Activity
[10] = tested on: NCI-H226; test: Growth inhibition of human NCI-H226 cells assessed as cell growth at 0.1 uM incubated for 48 hrs by sulforhodamine B assay relative to control; type: functional; details: NCI-H226, 48 h, read-out: Activity
[11] = tested on: NCI-H460; test: Growth inhibition of human NCI-H460 cells assessed as cell growth at 0.1 uM incubated for 48 hrs by sulforhodamine B assay relative to control; type: functional; details: NCI-H460, 48 h, read-out: Activity
[12] = tested on: HCT-116; test: Growth inhibition of human HCT116 cells assessed as cell growth at 0.1 uM incubated for 48 hrs by sulforhodamine B assay relative to control; type: functional; details: HCT-116, 48 h, read-out: Activity
[13] = tested on: SF-268; test: Growth inhibition of human SF268 cells assessed as cell growth at 0.1 uM incubated for 48 hrs by sulforhodamine B assay relative to control; type: functional; details: SF-268, 48 h, read-out: Activity
[14] = tested on: UACC-257; test: Growth inhibition of human UACC257 cells assessed as cell growth at 0.1 uM incubated for 48 hrs by sulforhodamine B assay relative to control; type: functional; details: UACC-257, 48 h, read-out: Activity
[15] = tested on: OVCAR-3; test: Growth inhibition of human OVCAR3 cells assessed as cell growth at 0.1 uM incubated for 48 hrs by sulforhodamine B assay relative to control; type: functional; details: OVCAR-3, 48 h, read-out: Activity
[16] = tested on: RPMI-8226; test: Growth inhibition of human RPMI8226 cells assessed as cell growth at 1 uM incubated for 48 hrs by sulforhodamine B assay relative to control; type: functional; details: RPMI-8226, 48 h, read-out: Activity
[17] = tested on: HOP-62; test: Growth inhibition of human HOP62 cells assessed as cell growth at 1 uM incubated for 48 hrs by sulforhodamine B assay relative to control; type: functional; details: HOP-62, 48 h, read-out: Activity
[18] = tested on: HCT-15; test: Growth inhibition of human HCT15 cells assessed as cell growth at 1 uM incubated for 48 hrs by sulforhodamine B assay relative to control; type: functional; details: HCT-15, 48 h, read-out: Activity
[19] = tested on: SF-268; test: Growth inhibition of human SF268 cells assessed as cell growth at 1 uM incubated for 48 hrs by sulforhodamine B assay relative to control; type: functional; details: SF-268, 48 h, read-out: Activity
[20] = tested on: SF-295; test: Growth inhibition of human SF295 cells assessed as cell growth at 1 uM incubated for 48 hrs by sulforhodamine B assay relative to control; type: functional; details: SF-295, 48 h, read-out: Activity
[21] = tested on: U-251; test: Growth inhibition of human U251 cells assessed as cell growth at 1 uM incubated for 48 hrs by sulforhodamine B assay relative to control; type: functional; details: U-251, 48 h, read-out: Activity
[22] = tested on: Hs-578T; test: Growth inhibition of human Hs578T cells assessed as cell growth at 1 uM incubated for 48 hrs by sulforhodamine B assay relative to control; type: functional; details: read-out: Activity
[23] = tested on: BT-549; test: Growth inhibition of human BT549 cells assessed as cell growth at 1 uM incubated for 48 hrs by sulforhodamine B assay relative to control; type: functional; details: BT-549, 48 h, read-out: Activity
[24] = tested on: COLO 205; test: Growth inhibition of human COLO205 cells assessed as cell growth at 100 uM incubated for 48 hrs by sulforhodamine B assay relative to control; type: functional; details: COLO 205, 48 h, read-out: Activity
[25] = tested on: HCT-15; test: Growth inhibition of human HCT15 cells assessed as cell growth at 100 uM incubated for 48 hrs by sulforhodamine B assay relative to control; type: functional; details: HCT-15, 48 h, read-out: Activity
[26] = tested on: SNB-75; test: Growth inhibition of human SNB75 cells assessed as cell growth at 100 uM incubated for 48 hrs by sulforhodamine B assay relative to control; type: functional; details: SNB-75, 48 h, read-out: Activity
[27] = tested on: M14; test: Growth inhibition of human M14 cells assessed as cell growth at 100 uM incubated for 48 hrs by sulforhodamine B assay relative to control; type: functional; details: M14, 48 h, read-out: Activity
[28] = tested on: OVCAR-3; test: Growth inhibition of human OVCAR3 cells assessed as cell growth at 100 uM incubated for 48 hrs by sulforhodamine B assay relative to control; type: functional; details: OVCAR-3, 48 h, read-out: Activity
[29] = tested on: 786-0; test: Growth inhibition of human 786-0 cells assessed as cell growth at 100 uM incubated for 48 hrs by sulforhodamine B assay relative to control; type: functional; details: 786-0, 48 h, read-out: Activity
[30] = tested on: UO-31; test: Growth inhibition of human UO31 cells assessed as cell growth at 100 uM incubated for 48 hrs by sulforhodamine B assay relative to control; type: functional; details: UO-31, 48 h, read-out: Activity
[31] = tested on: PC-3; test: Growth inhibition of human PC3 cells assessed as cell growth at 100 uM incubated for 48 hrs by sulforhodamine B assay relative to control; type: functional; details: PC-3, 48 h, read-out: Activity
[32] = read-out: LC50 (the source's name)
[33] = read-out: pLC50 (the source's name) (converted)

Structure (SMILES): COc1cc(Cl)cc(-c2nn(-c3cccc(NC(=O)Nc4ccc(Cl)c(C(F)(F)F)c4)c3)cc2-c2ccncc2)c1
- growth at 10 µM [1]: -10.4%
- GI50 ([2]; read-out: GI50): 0.455 µM
- CC50 [2, 32]: 5.15 µM
- TGI ([2]; read-out: TGI): 20 µM
- GI50 ([2]; read-out: pGI50 (converted)): 0.468 µM
- CC50 [2, 33]: 6.17 µM
- TGI ([2]; read-out: pTGI (converted)): 2 µM
- GI50 ([3]; read-out: GI50): 1.5 µM
- CC50 [3, 32]: 7.51 µM
- TGI ([3]; read-out: TGI): 33.5 µM
- GI50 ([3]; read-out: pGI50 (converted)): 1.51 µM
- CC50 [3, 33]: 7.59 µM
- TGI ([3]; read-out: pTGI (converted)): 3.39 µM
- GI50 ([4]; read-out: GI50): 1.55 µM
- CC50 [4, 32]: 55.2 µM
- TGI ([4]; read-out: TGI): 14 µM
- GI50 ([4]; read-out: pGI50 (converted)): 1.86 µM
- CC50 [4, 33]: 56.2 µM
- TGI ([4]; read-out: pTGI (converted)): 14.1 µM
- GI50 ([5]; read-out: GI50): 1.01 µM
- LC50 ([5]; read-out: LC50): > 100 µM
- TGI ([5]; read-out: TGI): 11 µM
- GI50 ([5]; read-out: pGI50 (converted)): 1.02 µM
- LC50 ([5]; read-out: pLC50 (converted)): > 100 µM
- TGI ([5]; read-out: pTGI (converted)): 11 µM
- growth at 0.01 µM [6]: 95%
- growth at 0.01 µM [7]: 95%
- growth at 0.01 µM [8]: 101%
- growth at 0.01 µM [9]: 98%
- growth at 0.1 µM [10]: 96%
- growth at 0.1 µM [11]: 102%
- growth at 0.1 µM [12]: 97%
- growth at 0.1 µM [13]: 90%
- growth at 0.1 µM [14]: 59%
- growth at 0.1 µM [15]: 99%
- growth at 1 µM [16]: 17%
- growth at 1 µM [17]: 84%
- growth at 1 µM [18]: 35%
- growth at 1 µM [19]: 83%
- growth at 1 µM [20]: 31%
- growth at 1 µM [21]: 43%
- growth at 1 µM [22]: 89%
- growth at 1 µM [23]: 92%
- growth at 100 µM [24]: -79%
- growth at 100 µM [25]: -90%
- growth at 100 µM [26]: -38%
- growth at 100 µM [27]: -70%
- growth at 100 µM [28]: -56%
- growth at 100 µM [29]: -81%
- growth at 100 µM [30]: -50%
- growth at 100 µM [31]: -15%

From ChEMBL document CHEMBL4308841, “Synthesis, in vitro antiproliferative activity, and kinase inhibitory effects of pyrazole-containing diarylureas and diarylamides” (Eur J Med Chem, 2018)
